The target of the experiment is T1, Nostoc sp. PCC73102 amylopullulanase, SEQ ID NO: 4, recombinant from pETNPul6xH with C-terminal Leu-Glu-6His (노스탁속 균주 유래 아밀로플루란네이즈) (Nostoc punctiforme (strain ATCC 29133 / PCC 73102), UniProt B2IUW9).
T1 sequence (B2IUW9 1-488): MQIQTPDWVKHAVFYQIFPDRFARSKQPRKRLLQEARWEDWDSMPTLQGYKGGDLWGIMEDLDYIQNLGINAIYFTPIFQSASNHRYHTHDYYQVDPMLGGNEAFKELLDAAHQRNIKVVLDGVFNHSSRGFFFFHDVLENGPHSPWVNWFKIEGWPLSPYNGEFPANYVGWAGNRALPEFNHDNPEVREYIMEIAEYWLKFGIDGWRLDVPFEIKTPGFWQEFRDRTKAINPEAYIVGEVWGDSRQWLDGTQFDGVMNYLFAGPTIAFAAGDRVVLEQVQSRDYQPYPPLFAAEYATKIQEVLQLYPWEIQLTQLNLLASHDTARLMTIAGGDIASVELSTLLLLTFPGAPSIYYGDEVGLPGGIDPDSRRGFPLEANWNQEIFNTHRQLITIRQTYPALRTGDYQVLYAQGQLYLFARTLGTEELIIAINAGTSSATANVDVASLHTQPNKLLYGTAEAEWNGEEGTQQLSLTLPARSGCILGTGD
The experiment can be described thus: Kinetics of amylopullulanase on maltoheptaose, maltooctaose and maltononaose (Example 6-2, glucose quantified by GOD-POD method). In kind it is biochemical. The note with it: 25 °C, pH 7, 3 min.

Experimental findings from patent KR20080072496A, “노스탁속 균주 유래 아밀로플루란네이즈 및 이를 이용한고순도 말토올리고당의 제조방법” (재단법인서울대학교산학협력재단, priority 2007, dated 2008) are described below.

Regarding `OC[C@H]1O[C@H](O[C@H]2[C@H](O)[C@@H](O)[C@@H](O[C@H]3[C@H](O)[C@@H](O)[C@@H](O[C@H]4[C@H](O)[C@@H](O)[C@@H](O[C@H]5[C@H](O)[C@@H](O)[C@@H](O[C@H]6[C@H](O)[C@@H](O)[C@@H](O[C@H]7[C@H](O)[C@@H](O)[C@@H](O[C@H]8[C@H](O)[C@@H](O)[C@@H](O[C@H]9[C@H](O)[C@@H](O)C(O)O[C@@H]9CO)O[C@@H]8CO)O[C@@H]7CO)O[C@@H]6CO)O[C@@H]5CO)O[C@@H]4CO)O[C@@H]3CO)O[C@@H]2CO)[C@H](O)[C@@H](O)[C@@H]1O` (stereo partly drawn) [말토노나오스, maltononaose], for the setting “relative to maltoheptaose (G7)”, the “Kcat, ratio to Kcat of maltoheptaose” value was ~3 배 (fold).

Regarding `OC[C@H]1O[C@H](O[C@H]2[C@H](O)[C@@H](O)[C@@H](O[C@H]3[C@H](O)[C@@H](O)[C@@H](O[C@H]4[C@H](O)[C@@H](O)[C@@H](O[C@H]5[C@H](O)[C@@H](O)[C@@H](O[C@H]6[C@H](O)[C@@H](O)[C@@H](O[C@H]7[C@H](O)[C@@H](O)C(O)O[C@@H]7CO)O[C@@H]6CO)O[C@@H]5CO)O[C@@H]4CO)O[C@@H]3CO)O[C@@H]2CO)[C@H](O)[C@@H](O)[C@@H]1O` (stereo partly drawn) [말토헵타오스, maltoheptaose], under “relative to maltononaose (G9)”, the “Km, ratio to Km of maltononaose” value is given as 20 배 (fold). Also, for the setting “relative to maltooctaose (G8)”, the “Km, ratio to Km of maltooctaose” value is given as 7 배 (fold).
